Data taken from publication PMC5564600 (Oncotarget, 2017).

Assays:
Test in all cases: biochemical
Type in all cases: binding
panel of 442 kinases [1] = biological target: T1, panel of 442 kinases (Homo sapiens, UniProt Q9P289); details: kinase MST4; for remaining activity at 1 µM: read-out: % of control at 1 µM
T1 construct: purchased Ambit Biosciences (scanMAXX KINOMEscan)

panel of 442 kinases [2] = biological target: T2, panel of 442 kinases (Homo sapiens, UniProt Q15139); details: kinase PRKD1; for remaining activity at 1 µM: read-out: PRKD1 (% of control at 1 µM)
T2 construct: purchased Ambit Biosciences (scanMAXX KINOMEscan)
T2 sequence (Q15139 1-912): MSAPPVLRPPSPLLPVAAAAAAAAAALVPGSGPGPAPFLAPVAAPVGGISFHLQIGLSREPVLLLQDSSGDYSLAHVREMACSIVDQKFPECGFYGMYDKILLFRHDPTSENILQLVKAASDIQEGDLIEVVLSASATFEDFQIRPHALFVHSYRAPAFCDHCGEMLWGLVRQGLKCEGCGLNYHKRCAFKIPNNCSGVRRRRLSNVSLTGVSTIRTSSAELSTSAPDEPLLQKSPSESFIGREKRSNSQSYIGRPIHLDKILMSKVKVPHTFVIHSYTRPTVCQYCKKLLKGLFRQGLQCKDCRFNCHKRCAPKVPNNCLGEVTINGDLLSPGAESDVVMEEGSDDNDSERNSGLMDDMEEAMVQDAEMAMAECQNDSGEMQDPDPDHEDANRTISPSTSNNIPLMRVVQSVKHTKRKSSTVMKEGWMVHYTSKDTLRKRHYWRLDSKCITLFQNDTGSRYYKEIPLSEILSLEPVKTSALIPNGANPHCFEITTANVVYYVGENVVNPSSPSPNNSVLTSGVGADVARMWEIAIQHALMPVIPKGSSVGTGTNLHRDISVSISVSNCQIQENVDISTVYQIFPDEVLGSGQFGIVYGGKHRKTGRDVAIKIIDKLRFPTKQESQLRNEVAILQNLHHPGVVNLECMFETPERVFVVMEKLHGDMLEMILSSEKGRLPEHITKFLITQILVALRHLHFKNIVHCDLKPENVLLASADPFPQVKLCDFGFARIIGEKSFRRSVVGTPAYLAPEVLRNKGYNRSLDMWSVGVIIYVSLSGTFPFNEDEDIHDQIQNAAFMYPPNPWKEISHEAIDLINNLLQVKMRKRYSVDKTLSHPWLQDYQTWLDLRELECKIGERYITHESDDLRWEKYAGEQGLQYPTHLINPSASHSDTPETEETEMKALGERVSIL

panel of 442 kinases [3] = biological target: T3, panel of 442 kinases (Homo sapiens, UniProt P45984); details: kinase JNK2; for remaining activity at 1 µM: read-out: % of control at 1 µM
T3 construct: purchased Ambit Biosciences (scanMAXX KINOMEscan)

panel of 442 kinases [4] = biological target: T4, panel of 442 kinases (Homo sapiens, UniProt P07947); details: kinase YES; for remaining activity at 1 µM: read-out: YES (% of control at 1 µM)
T4 construct: purchased Ambit Biosciences (scanMAXX KINOMEscan)

panel of 442 kinases [5] = biological target: T5, panel of 442 kinases (Homo sapiens, UniProt P29376); details: kinase LTK; for remaining activity at 1 µM: read-out: % of control at 1 µM
T5 construct: purchased Ambit Biosciences (scanMAXX KINOMEscan)

panel of 442 kinases [6] = biological target: T6, panel of 442 kinases (Homo sapiens, UniProt Q00536); details: kinase PCTK1; for remaining activity at 1 µM: read-out: % of control at 1 µM
T6 construct: purchased Ambit Biosciences (scanMAXX KINOMEscan)

panel of 442 kinases [7] = biological target: T7, panel of 442 kinases (Homo sapiens, UniProt P53778); details: kinase p38-gamma; for remaining activity at 1 µM: read-out: % of control at 1 µM
T7 construct: purchased Ambit Biosciences (scanMAXX KINOMEscan)
T7 sequence (P53778 1-367): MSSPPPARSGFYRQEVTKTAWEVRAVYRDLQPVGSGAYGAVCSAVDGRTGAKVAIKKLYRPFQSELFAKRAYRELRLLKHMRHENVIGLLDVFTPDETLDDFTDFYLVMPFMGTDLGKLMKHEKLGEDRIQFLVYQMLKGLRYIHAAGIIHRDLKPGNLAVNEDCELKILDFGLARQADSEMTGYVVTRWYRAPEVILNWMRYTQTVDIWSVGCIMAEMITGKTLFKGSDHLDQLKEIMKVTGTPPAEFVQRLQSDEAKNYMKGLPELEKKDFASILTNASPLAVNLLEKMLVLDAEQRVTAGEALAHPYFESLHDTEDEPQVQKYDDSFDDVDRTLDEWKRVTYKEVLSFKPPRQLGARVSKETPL

panel of 442 kinases [8] = biological target: T8, panel of 442 kinases (Homo sapiens, UniProt Q13873); details: BMPR2; for remaining activity at 1 µM: read-out: % of control at 1 µM
T8 construct: purchased Ambit Biosciences (scanMAXX KINOMEscan)
T8 sequence (Q13873 27-1038): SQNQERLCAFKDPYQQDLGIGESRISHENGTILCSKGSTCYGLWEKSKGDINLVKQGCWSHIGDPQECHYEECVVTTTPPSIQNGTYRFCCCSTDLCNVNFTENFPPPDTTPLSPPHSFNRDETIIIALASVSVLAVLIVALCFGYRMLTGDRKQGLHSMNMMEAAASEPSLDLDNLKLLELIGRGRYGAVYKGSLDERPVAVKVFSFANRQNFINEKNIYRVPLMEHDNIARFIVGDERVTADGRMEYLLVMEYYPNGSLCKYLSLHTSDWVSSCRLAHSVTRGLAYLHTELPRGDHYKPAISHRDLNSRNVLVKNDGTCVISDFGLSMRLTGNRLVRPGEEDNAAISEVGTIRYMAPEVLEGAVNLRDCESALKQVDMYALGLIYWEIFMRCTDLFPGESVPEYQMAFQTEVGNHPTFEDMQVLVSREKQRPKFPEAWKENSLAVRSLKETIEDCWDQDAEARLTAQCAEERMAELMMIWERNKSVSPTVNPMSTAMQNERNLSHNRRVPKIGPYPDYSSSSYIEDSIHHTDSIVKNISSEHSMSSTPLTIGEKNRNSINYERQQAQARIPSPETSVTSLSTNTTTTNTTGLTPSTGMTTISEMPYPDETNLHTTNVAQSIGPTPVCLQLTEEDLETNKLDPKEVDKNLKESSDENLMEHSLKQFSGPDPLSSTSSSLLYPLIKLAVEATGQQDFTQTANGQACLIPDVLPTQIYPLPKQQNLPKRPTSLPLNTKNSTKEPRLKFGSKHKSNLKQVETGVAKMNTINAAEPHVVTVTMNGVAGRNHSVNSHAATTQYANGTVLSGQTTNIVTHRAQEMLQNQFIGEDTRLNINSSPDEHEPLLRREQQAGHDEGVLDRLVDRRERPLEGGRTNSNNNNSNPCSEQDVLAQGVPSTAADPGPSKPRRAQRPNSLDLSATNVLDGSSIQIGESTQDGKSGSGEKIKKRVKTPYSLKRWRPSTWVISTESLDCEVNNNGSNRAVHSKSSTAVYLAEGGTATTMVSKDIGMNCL

panel of 442 kinases [9] = biological target: T9, panel of 442 kinases (Homo sapiens, UniProt Q9Y2H9); details: kinase MAST1; for remaining activity at 1 µM: read-out: % of control at 1 µM
T9 construct: purchased Ambit Biosciences (scanMAXX KINOMEscan)

[10] = 10 µM, read-out: % of control at 10 µM

T6 sequence (Q00536 whole entry): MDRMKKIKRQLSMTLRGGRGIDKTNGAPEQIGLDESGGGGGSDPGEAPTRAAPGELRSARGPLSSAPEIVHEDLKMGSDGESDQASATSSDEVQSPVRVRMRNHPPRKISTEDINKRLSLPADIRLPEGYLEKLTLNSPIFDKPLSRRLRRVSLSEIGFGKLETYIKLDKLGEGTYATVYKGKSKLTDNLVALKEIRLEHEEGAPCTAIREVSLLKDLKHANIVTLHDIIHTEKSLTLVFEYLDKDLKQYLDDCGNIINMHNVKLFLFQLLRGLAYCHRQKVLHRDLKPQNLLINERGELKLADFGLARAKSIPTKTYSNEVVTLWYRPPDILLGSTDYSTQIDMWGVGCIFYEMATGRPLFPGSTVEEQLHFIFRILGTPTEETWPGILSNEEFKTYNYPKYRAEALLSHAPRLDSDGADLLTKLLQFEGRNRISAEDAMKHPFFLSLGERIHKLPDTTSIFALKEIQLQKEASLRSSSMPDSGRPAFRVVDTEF
T3 sequence (P45984 whole entry): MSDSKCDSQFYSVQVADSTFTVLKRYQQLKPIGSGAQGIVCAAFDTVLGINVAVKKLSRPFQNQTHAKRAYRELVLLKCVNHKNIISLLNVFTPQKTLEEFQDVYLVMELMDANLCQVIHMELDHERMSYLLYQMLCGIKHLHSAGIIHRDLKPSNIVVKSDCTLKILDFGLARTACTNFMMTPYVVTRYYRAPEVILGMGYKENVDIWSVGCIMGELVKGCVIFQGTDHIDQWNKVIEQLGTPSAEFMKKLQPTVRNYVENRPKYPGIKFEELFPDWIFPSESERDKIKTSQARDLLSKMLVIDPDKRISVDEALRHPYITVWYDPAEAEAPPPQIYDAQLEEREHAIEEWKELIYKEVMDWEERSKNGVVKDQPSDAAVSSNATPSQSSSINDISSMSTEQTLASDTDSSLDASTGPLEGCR
T9 sequence (Q9Y2H9 whole entry): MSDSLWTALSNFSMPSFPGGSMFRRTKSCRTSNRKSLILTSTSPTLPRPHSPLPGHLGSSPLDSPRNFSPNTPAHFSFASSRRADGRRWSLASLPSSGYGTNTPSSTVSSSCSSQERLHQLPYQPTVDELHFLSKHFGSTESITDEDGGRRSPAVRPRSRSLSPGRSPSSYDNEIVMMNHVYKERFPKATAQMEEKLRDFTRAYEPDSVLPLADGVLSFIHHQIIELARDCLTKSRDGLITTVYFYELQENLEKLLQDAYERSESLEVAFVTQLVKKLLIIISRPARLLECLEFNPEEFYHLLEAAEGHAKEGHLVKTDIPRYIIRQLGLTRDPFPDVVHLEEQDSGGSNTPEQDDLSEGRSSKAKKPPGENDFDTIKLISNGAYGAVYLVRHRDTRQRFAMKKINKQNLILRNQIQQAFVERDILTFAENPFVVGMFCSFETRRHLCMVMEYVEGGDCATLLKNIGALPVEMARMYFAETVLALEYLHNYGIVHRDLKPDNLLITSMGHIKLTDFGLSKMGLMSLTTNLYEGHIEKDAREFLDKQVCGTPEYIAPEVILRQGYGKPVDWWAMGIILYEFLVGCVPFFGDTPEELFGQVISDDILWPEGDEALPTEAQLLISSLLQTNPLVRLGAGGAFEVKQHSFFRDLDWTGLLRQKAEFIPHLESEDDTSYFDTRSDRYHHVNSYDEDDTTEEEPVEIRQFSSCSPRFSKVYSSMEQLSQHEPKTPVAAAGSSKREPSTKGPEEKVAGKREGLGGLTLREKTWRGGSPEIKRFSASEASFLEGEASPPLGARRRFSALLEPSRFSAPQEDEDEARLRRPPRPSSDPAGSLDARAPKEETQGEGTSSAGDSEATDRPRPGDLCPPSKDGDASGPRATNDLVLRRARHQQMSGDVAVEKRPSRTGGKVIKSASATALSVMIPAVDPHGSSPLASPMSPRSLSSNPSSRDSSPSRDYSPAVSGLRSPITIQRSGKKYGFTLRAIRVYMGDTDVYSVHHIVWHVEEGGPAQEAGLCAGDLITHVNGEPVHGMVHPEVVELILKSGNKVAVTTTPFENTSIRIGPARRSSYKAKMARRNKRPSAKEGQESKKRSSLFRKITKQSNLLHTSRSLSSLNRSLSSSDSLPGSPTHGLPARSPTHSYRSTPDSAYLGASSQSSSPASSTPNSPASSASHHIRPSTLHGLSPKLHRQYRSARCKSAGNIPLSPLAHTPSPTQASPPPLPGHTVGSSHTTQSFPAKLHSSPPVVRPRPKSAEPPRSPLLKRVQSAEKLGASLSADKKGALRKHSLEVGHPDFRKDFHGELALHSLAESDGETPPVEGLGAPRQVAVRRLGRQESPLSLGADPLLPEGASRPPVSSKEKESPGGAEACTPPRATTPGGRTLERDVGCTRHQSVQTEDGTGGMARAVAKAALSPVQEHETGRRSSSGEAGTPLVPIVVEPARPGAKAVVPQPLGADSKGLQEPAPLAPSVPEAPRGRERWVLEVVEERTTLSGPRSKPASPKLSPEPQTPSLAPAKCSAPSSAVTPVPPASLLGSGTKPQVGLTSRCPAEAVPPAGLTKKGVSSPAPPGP
T4 sequence (P07947 whole entry): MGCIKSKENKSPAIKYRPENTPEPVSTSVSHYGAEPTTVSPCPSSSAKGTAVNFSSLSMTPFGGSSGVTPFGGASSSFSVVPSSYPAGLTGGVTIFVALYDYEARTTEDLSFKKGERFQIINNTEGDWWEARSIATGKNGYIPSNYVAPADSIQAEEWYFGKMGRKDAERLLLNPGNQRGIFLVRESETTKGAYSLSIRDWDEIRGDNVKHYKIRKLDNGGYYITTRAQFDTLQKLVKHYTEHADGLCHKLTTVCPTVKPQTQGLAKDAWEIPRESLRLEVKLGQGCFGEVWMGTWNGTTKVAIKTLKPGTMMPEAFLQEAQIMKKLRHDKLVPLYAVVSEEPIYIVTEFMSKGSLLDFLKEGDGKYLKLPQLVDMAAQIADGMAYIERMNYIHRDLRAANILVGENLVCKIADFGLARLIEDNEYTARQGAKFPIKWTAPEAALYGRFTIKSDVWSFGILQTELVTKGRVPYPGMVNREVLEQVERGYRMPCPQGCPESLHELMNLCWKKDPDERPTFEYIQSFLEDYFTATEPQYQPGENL
T1 sequence (Q9P289 whole entry): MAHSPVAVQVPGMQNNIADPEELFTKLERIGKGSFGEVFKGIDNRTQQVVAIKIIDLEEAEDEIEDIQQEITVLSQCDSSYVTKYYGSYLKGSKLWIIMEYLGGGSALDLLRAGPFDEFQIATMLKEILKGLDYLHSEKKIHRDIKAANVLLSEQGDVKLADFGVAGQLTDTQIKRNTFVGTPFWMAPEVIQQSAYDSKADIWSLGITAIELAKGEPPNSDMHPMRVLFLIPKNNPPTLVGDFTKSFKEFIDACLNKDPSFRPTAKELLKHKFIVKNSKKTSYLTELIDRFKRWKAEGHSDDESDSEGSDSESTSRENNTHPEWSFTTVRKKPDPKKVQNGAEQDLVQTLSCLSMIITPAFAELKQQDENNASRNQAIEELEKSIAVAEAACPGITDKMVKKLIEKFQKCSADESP
T5 sequence (P29376 17-864): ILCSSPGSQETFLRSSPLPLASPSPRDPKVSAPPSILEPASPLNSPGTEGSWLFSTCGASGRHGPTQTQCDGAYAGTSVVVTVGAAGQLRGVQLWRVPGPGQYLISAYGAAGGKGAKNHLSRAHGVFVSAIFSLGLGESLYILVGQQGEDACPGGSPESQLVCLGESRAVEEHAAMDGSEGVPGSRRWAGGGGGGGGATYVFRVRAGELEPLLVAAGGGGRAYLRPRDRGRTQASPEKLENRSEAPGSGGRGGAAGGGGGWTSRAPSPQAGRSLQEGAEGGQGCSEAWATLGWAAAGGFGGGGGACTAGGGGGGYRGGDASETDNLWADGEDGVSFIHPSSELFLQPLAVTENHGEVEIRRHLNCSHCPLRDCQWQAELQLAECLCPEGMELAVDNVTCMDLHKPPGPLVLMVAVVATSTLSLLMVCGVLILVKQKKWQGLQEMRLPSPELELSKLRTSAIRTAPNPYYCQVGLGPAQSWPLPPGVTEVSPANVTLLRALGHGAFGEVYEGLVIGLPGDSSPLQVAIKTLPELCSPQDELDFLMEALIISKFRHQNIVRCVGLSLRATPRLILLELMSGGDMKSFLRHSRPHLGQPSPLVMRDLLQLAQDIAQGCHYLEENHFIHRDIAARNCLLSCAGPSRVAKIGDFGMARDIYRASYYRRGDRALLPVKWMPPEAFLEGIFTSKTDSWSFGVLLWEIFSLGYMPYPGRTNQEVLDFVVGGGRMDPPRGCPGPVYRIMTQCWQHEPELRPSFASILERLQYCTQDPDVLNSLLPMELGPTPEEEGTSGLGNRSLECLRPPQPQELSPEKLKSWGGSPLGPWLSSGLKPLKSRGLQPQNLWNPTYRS

Nc1cc(C(F)(F)F)c(-c2cc(N3CCOCC3)nc(N3CCOCC3)n2)cn1 [Buparlisib]
remaining activity at 1 µM (panel of 442 kinases [1]): 100%
remaining activity at 10 µM (panel of 442 kinases [1]; [10]): 74%
remaining activity at 1 µM (panel of 442 kinases [2]): 100%
remaining activity at 10 µM (panel of 442 kinases [2]; 10 µM, read-out: PRKD1 (% of control at 10 µM)): 100%
remaining activity at 1 µM (panel of 442 kinases [3]): 100%
remaining activity at 10 µM (panel of 442 kinases [3]; [10]): 100%
remaining activity at 1 µM (panel of 442 kinases [4]): 100%
remaining activity at 10 µM (panel of 442 kinases [4]; 10 µM, read-out: YES (% of control at 10 µM)): 100%
remaining activity at 1 µM (panel of 442 kinases [5]): 99%
remaining activity at 10 µM (panel of 442 kinases [5]; [10]): 100%
remaining activity at 1 µM (panel of 442 kinases [6]): 79%
remaining activity at 10 µM (panel of 442 kinases [6]; [10]): 100%
remaining activity at 1 µM (panel of 442 kinases [7]): 100%
remaining activity at 10 µM (panel of 442 kinases [7]; [10]): 100%
remaining activity at 1 µM (panel of 442 kinases [8]): 86%
remaining activity at 10 µM (panel of 442 kinases [8]; [10]): 88%
remaining activity at 1 µM (panel of 442 kinases [9]): 53%
remaining activity at 10 µM (panel of 442 kinases [9]; [10]): 73%

Cn1c(=O)n(-c2ccc(C(C)(C)C#N)cc2)c2c3cc(-c4cnc5ccccc5c4)ccc3ncc21 [Dactolisib, 2-methyl-2-[4-(3-methyl-2-oxo-8-quinolin-3-yl-2,3-dihydroimidazo[4,5-c]quinolin-1-yl)-phenyl] propionitrile]
remaining activity at 1 µM (panel of 442 kinases [1]): 76%
remaining activity at 1 µM (panel of 442 kinases [2]): 100%
remaining activity at 1 µM (panel of 442 kinases [3]): 100%
remaining activity at 1 µM (panel of 442 kinases [4]): 100%
remaining activity at 1 µM (panel of 442 kinases [5]): 23%
remaining activity at 1 µM (panel of 442 kinases [6]): 100%
remaining activity at 1 µM (panel of 442 kinases [7]): 100%
remaining activity at 1 µM (panel of 442 kinases [8]): 83%
remaining activity at 1 µM (panel of 442 kinases [9]): 100%

COc1ncc(-c2ccc3nccc(-c4ccnnc4)c3c2)cc1NS(=O)(=O)c1ccc(F)cc1F [Omipalisib]
remaining activity at 1 µM (panel of 442 kinases [1]): 91%
remaining activity at 1 µM (panel of 442 kinases [2]): 100%
remaining activity at 1 µM (panel of 442 kinases [3]): 100%
remaining activity at 1 µM (panel of 442 kinases [4]): 100%
remaining activity at 1 µM (panel of 442 kinases [5]): 88%
remaining activity at 1 µM (panel of 442 kinases [6]): 96%
remaining activity at 1 µM (panel of 442 kinases [7]): 69%
remaining activity at 1 µM (panel of 442 kinases [8]): 100%
remaining activity at 1 µM (panel of 442 kinases [9]): 100%

FC(F)c1nc2ccccc2n1-c1nc(N2CCOCC2)nc(N2CCOCC2)n1 [ZSTK474, 2-(difluoromethyl)-1-[4,6-di(4-morpholinyl)-1,3,5-triazin-2-yl]-1H-benzimidazole]
remaining activity at 1 µM (panel of 442 kinases [1]): 68%
remaining activity at 1 µM (panel of 442 kinases [2]): 100%
remaining activity at 1 µM (panel of 442 kinases [3]): 100%
remaining activity at 1 µM (panel of 442 kinases [4]): 100%
remaining activity at 1 µM (panel of 442 kinases [5]): 72%
remaining activity at 1 µM (panel of 442 kinases [6]): 95%
remaining activity at 1 µM (panel of 442 kinases [7]): 100%
remaining activity at 1 µM (panel of 442 kinases [8]): 100%
remaining activity at 1 µM (panel of 442 kinases [9]): 100%
